Reference: PubChem BioAssay (NCI)
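Where inhibition never reached the appropriate level, the endpoint shown equals the highest concentration tested. Otherwise, values were interpolated linearly from a five-concentration, 48-hour dose response in 96-well plates. GI50 = concentration required for 50% inhibition of growth. The concentration for full growth arrest is given as TGI.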

Experiments:
Experiment in all cases: NCI anticancer screen, dose series, 48 h
[1] = system: 786-0 renal
[2] = system: A498 renal
[3] = system: A549 NSCLC
[4] = system: ACHN renal
[5] = system: BT-549 breast
[6] = system: CCRF-CEM leukemia
[7] = system: COLO 205 colon
[8] = system: DU-145 prostate
[9] = system: EKVX NSCLC
[10] = system: HCC-2998 colon
[11] = system: HCT-116 colon
[12] = system: HCT-15 colon
[13] = system: HL-60(TB) leukemia
[14] = system: HOP-62 NSCLC
[15] = system: HOP-92 NSCLC
[16] = system: HS 578T breast
[17] = system: HT29 colon
[18] = system: IGROV1 ovarian
[19] = system: K-562 leukemia
[20] = system: KM12 colon
[21] = system: LOX IMVI melanoma
[22] = system: M14 melanoma
[23] = system: MALME-3M melanoma
[24] = system: MCF7 breast
[25] = system: MDA-MB-231 breast
[26] = system: MDA-MB-435
[27] = system: MOLT-4 leukemia
[28] = system: NCI-H226 lung
[29] = system: NCI-H23 lung
[30] = system: NCI-H460 lung
[31] = system: NCI-H522 lung
[32] = system: NCI/ADR-RES ovarian
[33] = system: OVCAR-3 ovarian
[34] = system: OVCAR-4 ovarian
[35] = system: OVCAR-5 ovarian
[36] = system: OVCAR-8 ovarian
[37] = system: PC-3 prostate
[38] = system: RPMI-8226 leukemia
[39] = system: RXF 393 renal
[40] = system: SF-268 CNS
[41] = system: SF-295 CNS
[42] = system: SF-539 CNS
[43] = system: SK-MEL-2 melanoma
[44] = system: SK-MEL-28 melanoma
[45] = system: SK-MEL-5 melanoma
[46] = system: SK-OV-3 ovarian
[47] = system: SN12C renal
[48] = system: SNB-19 CNS
[49] = system: SNB-75 CNS
[50] = system: SR leukemia
[51] = system: SW-620 colon
[52] = system: T-47D breast
[53] = system: TK-10 renal
[54] = system: U251 CNS
[55] = system: UACC-257 melanoma
[56] = system: UACC-62 melanoma
[57] = system: UO-31 renal

`CCN1CCN(c2nc(NCCNc3ccnc4cc(Cl)ccc34)c3ccccc3n2)CC1` was tested, and the GI50 [1] was 1030 nM, the TGI [1] was 2440 nM and the GI50 [2] was 1680 nM. For the same compound, the TGI [2] was 3350 nM, the GI50 [3] was 2210 nM and the TGI [3] was 8480 nM. For the same compound, the GI50 [4] was 1930 nM, the TGI [4] was 3890 nM and the GI50 [5] was 2010 nM. For the same compound, the TGI [5] was 5390 nM, the GI50 [6] was 759 nM and the TGI [6] was 7590 nM. The GI50 [7] was 505 nM, the TGI [7] was 2070 nM and the GI50 [8] was 2170 nM. It also gave a TGI [8] of 9140 nM, a GI50 [9] of 2620 nM and a TGI [9] of 11600 nM. It also gave a GI50 [10] of 1690 nM, a TGI [10] of 4910 nM and a GI50 [11] of 1100 nM. For the same compound, the TGI [11] was 6130 nM, the GI50 [12] was 1520 nM and the TGI [12] was 5250 nM. The GI50 [13] was 2010 nM, the TGI [13] was 4010 nM and the GI50 [14] was 1950 nM. It also gave a TGI [14] of 6430 nM, a GI50 [15] of 1140 nM and a TGI [15] of 2490 nM. The GI50 [16] was 2190 nM, the TGI [16] was 7360 nM and the GI50 [17] was 793 nM. For the same compound, the TGI [17] was 7470 nM, the GI50 [18] was 1620 nM and the TGI [18] was 4690 nM. It also gave a GI50 [19] of 1030 nM, a TGI [19] of 3890 nM and a GI50 [20] of 1630 nM. It also gave a TGI [20] of 5180 nM, a GI50 [21] of 1510 nM and a TGI [21] of 3010 nM. For the same compound, the GI50 [22] was 1590 nM, the TGI [22] was 3360 nM and the GI50 [23] was 1950 nM. It also gave a TGI [23] of 3580 nM, a GI50 [24] of 1110 nM and a TGI [24] of 11000 nM. The GI50 [25] was 1280 nM, the TGI [25] was 2880 nM and the GI50 [26] was 1640 nM. It also gave a TGI [26] of 3140 nM, a GI50 [27] of 2130 nM and a TGI [27] of 7170 nM. It also gave a GI50 [28] of 1820 nM, a TGI [28] of 4050 nM and a GI50 [29] of 2770 nM. It also gave a TGI [29] of 10700 nM, a GI50 [30] of 1910 nM and a TGI [30] of 5330 nM. The GI50 [31] was 2140 nM, the TGI [31] was 4540 nM and the GI50 [32] was 4570 nM. The TGI [32] was 25800 nM, the GI50 [33] was 1870 nM and the TGI [33] was 4200 nM. For the same compound, the GI50 [34] was 1780 nM, the TGI [34] was 4450 nM and the GI50 [35] was 2560 nM. For the same compound, the TGI [35] was 9140 nM, the GI50 [36] was 1890 nM and the TGI [36] was 5960 nM. It also gave a GI50 [37] of 2400 nM, a TGI [37] of 15700 nM and a GI50 [38] of 1540 nM. It also gave a TGI [38] of 4410 nM, a GI50 [39] of 1260 nM and a TGI [39] of 2770 nM. The GI50 [40] was 2510 nM, the TGI [40] was 13300 nM and the GI50 [41] was 1330 nM. For the same compound, the TGI [41] was 2740 nM, the GI50 [42] was 1830 nM and the TGI [42] was 3360 nM. For the same compound, the GI50 [43] was 2070 nM, the TGI [43] was 4330 nM and the GI50 [44] was 2040 nM. For the same compound, the TGI [44] was 3810 nM, the GI50 [45] was 1820 nM and the TGI [45] was 3210 nM. For the same compound, the GI50 [46] was 2130 nM, the TGI [46] was 4710 nM and the GI50 [47] was 1210 nM. For the same compound, the TGI [47] was 2880 nM, the GI50 [48] was 1990 nM and the TGI [48] was 14000 nM. The GI50 [49] was 1940 nM, the TGI [49] was 5850 nM and the GI50 [50] was 287 nM. It also gave a TGI [50] of 898 nM, a GI50 [51] of 707 nM and a TGI [51] of 5140 nM. It also gave a GI50 [52] of 1920 nM, a TGI [52] of 4420 nM and a GI50 [53] of 2420 nM. It also gave a TGI [53] of 6020 nM, a GI50 [54] of 2280 nM and a TGI [54] of 10100 nM. For the same compound, the GI50 [55] was 2620 nM, the TGI [55] was 4800 nM and the GI50 [56] was 1410 nM. For the same compound, the TGI [56] was 2940 nM, the GI50 [57] was 1530 nM and the TGI [57] was 3300 nM.
